Experimental findings from ChEMBL document CHEMBL1201862, “PubChem BioAssay data set” (2004) are described below.

Test systems include BT-549; OVCAR-3; OVCAR-5; MDA-MB-435; IGROV-1; SNB-19; EKVX; K562; HCT-116; NCI-H226; PC-3; CAKI-1; HT-29; MCF7; MOLT-4; A549; M14; NCI/ADR-RES; SK-MEL-2; LOX IMVI.
Common to all, as to assay: growth of human tumour cells (NCI), 48 h

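Dose response: 5 concentrations. Exposure: 48 h. Format: 96-well plates. Endpoint: linear interpolation; highest concentration if not reached. GI50 marks 50% less growth.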 Calls of active or inactive are those of the source. Cut-off read from the data, not from the text of the source: active = GI50 up to about 1.1 µM and inactive = higher.

`O=C1c2ccccc2C(=O)c2c(NCCCNCCO)ccc(NCCCNCCO)c21`: the GI50 with BT-549 is 14.5 µM (inactive); in the assay with OVCAR-3, 5.71 µM (inactive); in the assay with OVCAR-5 it was 8.91 µM (inactive); with MDA-MB-435 it was 12.6 µM (inactive); with IGROV-1 it was 15.7 µM (inactive); in the assay on SNB-19 it was 5.11 µM (inactive). For the same molecule, the GI50 was 11.8 µM (inactive) with EKVX; 2.64 µM (inactive) with K562; 4.33 µM (inactive) with HCT-116; 1.61 µM (inactive) in the assay with NCI-H226; 7.67 µM (inactive) in the assay with PC-3; 10 µM (inactive) with CAKI-1. For the same molecule, the GI50 in the assay on HT-29 was 4.82 µM (inactive); in the assay with MCF7, 2.88 µM (inactive); in the assay on MOLT-4 it was 3 µM (inactive); with A549, 11.5 µM (inactive); in the assay with M14, 9.68 µM (inactive); in the assay on NCI/ADR-RES, 28.5 µM (inactive). In addition, the GI50 in the assay with SK-MEL-2 was 13.2 µM (inactive); with LOX IMVI, 3.5 µM (inactive).
Take `Cc1ccc(/C=N/Nc2cc(C)c3ccccc3n2)s1`: the GI50 with BT-549 was 21.3 µM (inactive); in the assay on OVCAR-3, 2.65 µM (inactive); in the assay with OVCAR-5, 15.6 µM (inactive); with MDA-MB-435 it was 21.2 µM (inactive); with IGROV-1 it was 10.2 µM (inactive); in the assay on SNB-19 it was 41.6 µM (inactive). The GI50 with EKVX was 4.84 µM (inactive); with K562, 7 µM (inactive); with HCT-116, 3.85 µM (inactive); in the assay on NCI-H226, 14 µM (inactive); in the assay with PC-3, 14 µM (inactive); with CAKI-1, 11.4 µM (inactive). Also, the GI50 with HT-29 is 3.85 µM (inactive); with MCF7, 12 µM (inactive); in the assay with MOLT-4 it was 1.42 µM (inactive); with A549 it was 16.5 µM (inactive); in the assay on M14, 13.7 µM (inactive); with NCI/ADR-RES, 11.1 µM (inactive). Also, the GI50 was 34.1 µM (inactive) in the assay on SK-MEL-2 and 10.3 µM (inactive) in the assay with LOX IMVI.
Consider `O=c1c(=O)c2cscc2c1=O`, for which the GI50 with BT-549 was 4.85 µM (inactive); with OVCAR-3, 5.62 µM (inactive); in the assay with OVCAR-5 it was 4.74 µM (inactive); with MDA-MB-435, 4.65 µM (inactive); with IGROV-1, 4.66 µM (inactive); with SNB-19, 6.56 µM (inactive). Also, the GI50 is 5.11 µM (inactive) with EKVX; 0.0955 µM (active) with K562; 4.9 µM (inactive) with HCT-116; 5.55 µM (inactive) in the assay with NCI-H226; 4.58 µM (inactive) with PC-3; 4.4 µM (inactive) with CAKI-1. The GI50 in the assay with HT-29 was 4.93 µM (inactive); with MCF7, 6.24 µM (inactive); in the assay with MOLT-4, 4.58 µM (inactive); in the assay with A549, 8.99 µM (inactive); with M14, 4.94 µM (inactive); with NCI/ADR-RES, 8 µM (inactive). The GI50 in the assay with SK-MEL-2 and in the assay with LOX IMVI was 4.92 µM (inactive) each time.
For `CC(=O)O[C@H]1CC[C@@]2(C)C(=CC[C@H]3[C@@H]4C[C@H](N5CCOCC5)[C@H](OC(C)=O)[C@@]4(C)CC[C@@H]32)C1`, the GI50 in the assay with BT-549, with OVCAR-3, in the assay with OVCAR-5, in the assay with MDA-MB-435, in the assay on IGROV-1 and in the assay on SNB-19 was > 100 µM (inactive) in each case. In addition, the GI50 in the assay on EKVX was > 100 µM (inactive); in the assay with K562, 25.4 µM (inactive); in the assay with HCT-116 it was > 100 µM (inactive); in the assay on NCI-H226 it was > 100 µM (inactive); in the assay on PC-3, > 100 µM (inactive); with CAKI-1, > 100 µM (inactive). For the same molecule, the GI50 is 32.4 µM (inactive) in the assay on HT-29; > 100 µM (inactive) with MCF7; > 100 µM (inactive) in the assay with MOLT-4; > 100 µM (inactive) with A549; > 100 µM (inactive) with M14; > 100 µM (inactive) with NCI/ADR-RES. Besides, the GI50 with SK-MEL-2 and with LOX IMVI was > 100 µM (inactive) throughout.
Turning to `CC1CCC2C(C(=O)O[C@H]3C4C=CO[C@@H](OC5OC(CO)C(O)C(O)C5O)C4[C@@]4(CO)O[C@@H]34)=CO[C@@H](OC3OC(CO)C(O)C(O)C3O)C12` (stereo not given in full), the GI50 in the assay with BT-549, in the assay with OVCAR-3, in the assay on OVCAR-5, in the assay on MDA-MB-435, in the assay with IGROV-1 and with SNB-19 was > 10 µM (inactive) in each case. The GI50 in the assay with EKVX, with K562, in the assay on HCT-116, in the assay with NCI-H226, with PC-3 and in the assay on CAKI-1 was > 10 µM (inactive) throughout. Also, the GI50 in the assay on HT-29, in the assay with MCF7, with MOLT-4, with A549, with M14 and in the assay with NCI/ADR-RES was > 10 µM (inactive) in each case. Also, the GI50 with SK-MEL-2 and in the assay on LOX IMVI was > 10 µM (inactive) each time.
`CCOC(=O)C1=C(C)NC(C)=C(C(=O)OCCNC(=O)c2ccc(N=[N+]=[N-])cc2)C1c1ccccc1C(F)(F)F` (stereo not given) [AZIDOPINE]: the GI50 in the assay on BT-549 is 13.9 µM (inactive); with OVCAR-3, 9.06 µM (inactive); in the assay on OVCAR-5, 19.9 µM (inactive); in the assay with MDA-MB-435, 9.27 µM (inactive); with IGROV-1, 18.7 µM (inactive); in the assay with SNB-19, 15.4 µM (inactive). The GI50 in the assay on EKVX is 10.7 µM (inactive); in the assay on K562 it was 7.83 µM (inactive); in the assay on HCT-116, 9.73 µM (inactive); with NCI-H226, 15 µM (inactive); in the assay with PC-3 it was 3.28 µM (inactive); in the assay on CAKI-1 it was 12.4 µM (inactive). For the same molecule, the GI50 was 9.46 µM (inactive) in the assay with HT-29; 6.43 µM (inactive) with MCF7; 4.09 µM (inactive) in the assay on MOLT-4; 8 µM (inactive) in the assay on A549; 9.98 µM (inactive) with M14; 8.28 µM (inactive) in the assay with NCI/ADR-RES. In addition, the GI50 in the assay on SK-MEL-2 is 6.53 µM (inactive); in the assay on LOX IMVI, 10.7 µM (inactive).
